Assay results from patent publication US5223486A, “Inhibition of cancer procoagulant” (University Research Corporation, priority 1991, dated 1993).
Where two headings read alike, the source gives them in different places. Where a SMILES comes first, the peptide text is derived from it. [ ]: non-standard residue; d: D form. The star is where a group is joined. ξ: configuration not given here. ξF = NC(Cc1ccccc1)C(=O)O; Cbz = O=C(OCc1ccccc1)*; ξV = CC(C)C(N)C(=O)O; CHN2 = [N-]=[N+]=C*; ξP = O=C(O)C1CCCN1; tBu = CC(C)(C)*

How the values were obtained:
cathepsin L [1] = details: cathepsin B from rat and human; substrate Z-Phe-Arg-4-methyl-7-coumarylamide; cited from earlier work
cancer procoagulant (CP) [2] = experiment: one-stage plasma recalcification clotting time assay, inhibition of CP procoagulant activity; format: biochemical, rabbit; details: for percent inhibition of CP: 30 min at 25° C.
isolated rat hepatocytes = details: 10^-5 M; cited from earlier work
clostripain = clostripain (Hathewaya histolytica, UniProt P09870); details: cited from earlier work
Chain of clostripain (P09870 191-526): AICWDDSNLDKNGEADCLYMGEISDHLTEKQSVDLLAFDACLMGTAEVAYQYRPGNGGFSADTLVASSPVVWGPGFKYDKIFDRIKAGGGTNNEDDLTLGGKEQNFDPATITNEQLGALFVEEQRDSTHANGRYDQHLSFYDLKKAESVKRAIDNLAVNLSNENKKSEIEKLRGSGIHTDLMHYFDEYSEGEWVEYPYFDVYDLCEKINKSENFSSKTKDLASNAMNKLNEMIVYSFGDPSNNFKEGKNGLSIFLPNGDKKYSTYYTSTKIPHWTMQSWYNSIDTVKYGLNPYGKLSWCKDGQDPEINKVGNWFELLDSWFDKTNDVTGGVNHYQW
Chain of clostripain (P09870 51-181): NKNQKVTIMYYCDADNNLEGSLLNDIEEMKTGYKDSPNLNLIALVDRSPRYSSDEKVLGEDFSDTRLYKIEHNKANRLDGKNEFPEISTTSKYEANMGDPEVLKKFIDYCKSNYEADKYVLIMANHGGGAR

papain = biological target: T1, papain (Carica papaya, UniProt P00784); format: biochemical; details: 30 min at 25° C.
T1 construct: purchased Sigma Chemical Co. (St. Louis, MO)
T1 sequence (P00784 134-345): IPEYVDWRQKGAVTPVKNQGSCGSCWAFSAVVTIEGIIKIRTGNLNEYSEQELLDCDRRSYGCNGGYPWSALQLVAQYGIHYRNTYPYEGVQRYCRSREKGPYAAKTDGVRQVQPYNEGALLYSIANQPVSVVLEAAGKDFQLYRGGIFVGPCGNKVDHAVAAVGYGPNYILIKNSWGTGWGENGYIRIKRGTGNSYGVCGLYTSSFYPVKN
Description: (§1) If the volume of the sample was too small, 0.05 ml of the sample was used with proportional reduction in the volume of the other reagents. […] These dilutions of RVV were used to calibrate the assay plasma and to verify linearity of the clotting times over the range of procoagulant activity.
(§2) The procoagulant activity of the samples was expressed as clotting time in seconds or as the percent activity, calculated as the percent reduction of clotting time (CT) from the corresponding buffer blank [(blank time (sec)-sample clotting time (sec))/ blank time (sec)]×100. The percent inhibition of the control and experimental procoagulants by the peptidyl diazomethyl ketone and peptidyl sulfonium salt inhibitors was expressed as the percent increase in the clotting time compared with the uninhibited sample [(inhibited CT-uninhibited CT)/uninhibited CT]×100.
(§3) Papain, a factor X activator and cysteine proteinase standard, RVV (Russell's viper venom) and rabbit brain thromboplastin, a tissue factor (TF) standard, were purchased from Sigma Chemical Co. (St. Louis, MO). To determine the effect of the peptidyl diazomethyl ketone and peptidyl sulfonium salt inhibitors on CP, the control procoagulants (Papain, RVV and TF), and the assay plasma system, the procoagulant activity of the samples and controls was analyzed with and without the addition of different concentrations of the inhibitors. […] Peptidyl diazomethyl ketone inhibitors were incubated with the procoagulant samples at a final concentration of 400 μM, 200 μM, 100 μM, 10 μM and 1 μM. Peptidyl sulfonium salt inhibitors were incubated with the samples at a final concentration of 800 μM, as well as the same concentrations as the diazomethyl ketones. At the end of the inhibition incubation, each sample was analyzed in the coagulation assay.

[3] = system: RVV (Russell's viper venom); experiment: one-stage plasma recalcification clotting time assay, RVV control procoagulant; format: biochemical; details: 30 min at 25° C.; for percent inhibition of RVV (negative = slight activation): 200 μM peptidyl diazomethyl ketone; for effect on activity of RVV: 400 μM peptidyl sulfonium salt
Description: as §1, §2, §3

[4] = biological target: T2, rabbit brain thromboplastin, a tissue factor (TF) standard (Oryctolagus cuniculus, UniProt P24055); experiment: one-stage plasma recalcification clotting time assay, TF control procoagulant; format: biochemical; details: 30 min at 25° C.; for inhibition of TF: 200 μM peptidyl diazomethyl ketone; for enhancement of TF activity (negative inhibition): 400 μM peptidyl sulfonium salt
T2 construct: rabbit brain thromboplastin, a tissue factor (TF) standard; purchased Sigma Chemical Co. (St. Louis, MO); host or cells: rabbit brain
T2 sequence (P24055 33-292): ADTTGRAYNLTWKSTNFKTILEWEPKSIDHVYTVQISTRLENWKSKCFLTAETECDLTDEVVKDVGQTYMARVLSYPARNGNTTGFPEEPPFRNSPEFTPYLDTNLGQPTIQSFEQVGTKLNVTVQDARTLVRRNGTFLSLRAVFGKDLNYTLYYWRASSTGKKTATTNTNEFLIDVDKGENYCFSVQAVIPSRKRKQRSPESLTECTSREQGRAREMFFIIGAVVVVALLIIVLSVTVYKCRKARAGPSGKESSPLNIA
Description: as §1, with “The procoagulant activity of the samples and the controls was measured in a one-stage plasma recalcification clotting time assay using a model 202A clot timer (Heller Laboratories, Santa Rose, CA). […] If” for “If”
as §2, §3
Each CP or control sample was adjusted to a concentration such that the procoagulant activity reduced the clotting time of the blank assay plasma from 10% to 30%, within the linear range of the assay (Gordon et al. (1979) J. Natl. Cancer Inst. 62:773-776).

[5] = system: control procoagulants (TF, RVV and Papain); experiment: effect on the coagulation controls and the assay plasma; format: biochemical; details: compared with D1-D3 results of FIG. 1
Description: The procoagulant activity of the samples and the controls was measured in a one-stage plasma recalcification clotting time assay using a model 202A clot timer (Heller Laboratories, Santa Rose, CA). […]. If the volume of the sample was too small, 0.05 ml of the sample was used with proportional reduction in the volume of the other reagents. […]. These dilutions of RVV were used to calibrate the assay plasma and to verify linearity of the clotting times over the range of procoagulant activity.
as §2
Papain, a factor X activator and cysteine proteinase standard, RVV (Russell's viper venom) and rabbit brain thromboplastin, a tissue factor (TF) standard, were purchased from Sigma Chemical Co. (St. Louis, MO). To determine the effect of the peptidyl diazomethyl ketone and peptidyl sulfonium salt inhibitors on CP, the control procoagulants (Papain, RVV and TF), and the assay plasma system, the procoagulant activity of the samples and controls was analyzed with and without the addition of different concentrations of the inhibitors. […]; there was no effect of these solvents on the assay plasma activity. Preliminary experiments evaluated the time (15, 30 and 50 min) and temperature (25° C. and 37° C.) of the inhibition reaction; 30 min at 25° C. was selected as the optimum conditions and was used for the subsequent studies. […] At the end of the inhibition incubation, each sample was analyzed in the coagulation assay. […]

[6] = system: nonsmall cell lung cancer; details: patients with nonsmall cell lung cancer limited to one hemithorax; cited from earlier work
[7] = system: small cell carcinoma of the lung; details: patients with small cell carcinoma of the lung; cited from earlier work
cathepsin B = cathepsin B (Homo sapiens, UniProt P07858); details: cited from earlier work
cathepsin L [8] = biological target: cathepsin L (Homo sapiens, UniProt P07711); details: cited from earlier work
Chain of cathepsin L (Homo sapiens, UniProt P07711) (P07711 114-333, species assumed): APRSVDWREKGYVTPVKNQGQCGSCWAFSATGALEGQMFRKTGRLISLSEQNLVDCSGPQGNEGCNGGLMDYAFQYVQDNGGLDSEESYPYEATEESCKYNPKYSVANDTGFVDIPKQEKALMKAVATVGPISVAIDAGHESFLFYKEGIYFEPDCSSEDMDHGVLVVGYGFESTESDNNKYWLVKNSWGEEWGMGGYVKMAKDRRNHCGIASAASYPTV

cancer procoagulant (CP) [9] = format: biochemical, human
Description: Fresh human placenta was obtained from the delivery deck, the amnion-chorion membranes were removed from the placental tissue and extracted in 3 to 4 changes of 20 mM veronal buffer (pH 7.4) as described in Gordon et al. (1985) Blood 66:1261-1265. The extracts were purified over an anti-Cp antibody affinity column. The purified CP sample was assayed for procoagulant activity by measuring clotting time of normal and factor VII deficient citrated plasma. […] To assure that there was no tissue factor-factor VIIa activity in the preparation, 5 μl (1.3 mg/ml) of rabbit polyclonal anti-tissue factor antibody was added to the sample and incubated for 30 min. at 25° C.

For `C[C@H](NC(=O)[C@H](Cc1ccccc1)NC(=O)OCc1ccccc1)C(=O)C=[N+]=[N-]` [D1, Z-Phe-Ala diazomethyl ketone], the “affinity for cathepsin L relative to cathepsin B” value (cathepsin L [1]) is given as “about 2000 fold”, the “percent inhibition of CP” value (cancer procoagulant (CP) [2]; 100 μM inhibitor) is given as 68% and the “inhibition of CP by D1 relative to S1 (times greater)” value (cancer procoagulant (CP) [2]; same concentration (100 μM), same peptide) is given as roughly 3 times. For the same molecule, the “inhibition of protein synthesis” value (isolated rat hepatocytes) was 21%, the reactivity toward clostripain (clostripain) was “absolutely inert” and the “percent inhibition of papain” value (papain; 100 μM inhibitor) was 85%. For the same molecule, the “percent inhibition of papain” value (papain; 200 μM inhibitor) was 97%, the “percent inhibition of RVV (negative = slight activation)” value (“percent inhibition of RVV” for short) [3] was -10% to -13% and the “inhibition of TF” value [4] was “no significant inhibition”.
With `[N-]=[N+]=CC(=O)CNC(=O)C(Cc1ccccc1)NC(=O)OCc1ccccc1` (stereo not shown) [D2, Z-Phe-Gly diazomethyl ketone] (Cbz-[ξF]-Gly-CHN2) the “percent inhibition of CP” value (cancer procoagulant (CP) [2]; 100 μM inhibitor) was 97%, the “percent inhibition of papain” value (papain; 100 μM inhibitor) was 88% and the “percent inhibition of papain” value (papain; 200 μM inhibitor) was 97%. The “percent inhibition of RVV” value [3] was -10% to -13% and the “inhibition of TF” value [4] was “no significant inhibition”.
In the case of `[N-]=[N+]=CC(=O)CNC(=O)C1CCCN1C(=O)OCc1ccccc1` (stereo not shown) [D3, Z-Pro-Gly diazomethyl ketone] (Cbz-[ξP]-Gly-CHN2), the “percent inhibition of papain” value (papain; 100 μM inhibitor) is reported as 15%, the “percent inhibition of papain” value (papain; 200 μM inhibitor) is reported as 88% and the “percent inhibition of RVV” value [3] is reported as -10% to -13%. The “inhibition of TF” value [4] was “no significant inhibition”.
In the case of `CC(C)C(NC(=O)CNC(=O)CNC(=O)OCc1ccccc1)C(=O)C=[N+]=[N-]` (stereo not drawn) [D4, Z-Gly-Gly-Val diazomethyl ketone] (Cbz-Gly-Gly-[ξV]-CHN2), the “percent inhibition of CP” value (cancer procoagulant (CP) [2]; 100 μM inhibitor) is reported as “about 48%”, the “effect on the coagulation controls and the assay plasma” value [5] is reported as “essentially the same results” and the “percent inhibition of papain” value (papain; 100 μM inhibitor) is reported as 2%.
In the case of `CC(NC(=O)OCc1ccccc1)C(=O)NC(C)C(=O)N1CCCC1C(=O)C=[N+]=[N-]` (stereo not drawn) [D5, Z-Ala-Ala-Pro diazomethyl ketone] (Cbz-Ala-Ala-Pro-CHN2; configuration not given here), the “percent inhibition of CP” value (cancer procoagulant (CP) [2]; 100 μM inhibitor) is reported as roughly 62%, the “effect on the coagulation controls and the assay plasma” value [5] is reported as “essentially the same results” and the “percent inhibition of papain” value (papain; 100 μM inhibitor) is reported as 2%.
In the case of `CC(NC(=O)C(C)NC(=O)OCc1ccccc1)C(=O)C=[N+]=[N-]` (stereo not shown) [D6, Z-Ala-Ala diazomethyl ketone], the “percent inhibition of CP” value (cancer procoagulant (CP) [2]; 100 μM inhibitor) is reported as 92%, the “effect on the coagulation controls and the assay plasma” value [5] is reported as “essentially the same results” and the “percent inhibition of papain” value (papain; 100 μM inhibitor) is reported as 31%.
In the case of `OCCN(CCO)c1nc(N2CCCCC2)c2nc(N(CCO)CCO)ncc2n1` [RA-233, mopidamol], the survival [6] is given as “statistically significant prolongation of survival”.
For `CC(=O)CC(c1ccccc1)c1c(O)c2ccccc2oc1=O` (stereo not shown) [Warfarin], the survival [7] is listed as “significant improvement” and the “time to first evidence disease progression” value [7] is listed as “significant prolongation”.
In the case of `[N-]=[N+]=CC(=O)C(CCCCN)NC(=O)OCc1ccccc1` (stereo not shown) [Z-Lys diazomethyl ketone], the “inhibition of cathepsin B” value (cathepsin B) is given as “powerful inhibitor”.
For `CC(C)(C)Oc1ccc(C[C@H](NC(=O)[C@H](Cc2ccccc2)NC(=O)OCc2ccccc2)C(=O)C=[N+]=[N-])cc1` [Z-Phe-Tyr(O-t-Bu) diazomethyl ketone] (Cbz-Phe-Tyr(tBu)-CHN2), the “rate of inactivation of cathepsin L relative to cathepsin B” value (cathepsin L [8]) is listed as 2.5×10^4.
In the case of `NC(=O)CI` [iodacetamide, iodoacetamide], the “inhibition of procoagulant activity of purified CP” value (cancer procoagulant (CP) [9]) is reported as “all the procoagulant activity was inhibited”.
With HgCl2 [Hg^++] the “inhibition of procoagulant activity of purified CP” value (cancer procoagulant (CP) [9]; 1 mM iodoacetamide in water, 0.1 mM HgCl2 in water) was “all the procoagulant activity was inhibited”.
In the case of Z-Phe-Ala-CH2 -S^+ (CH3)2 bromide [S1], the “percent inhibition of CP” value (cancer procoagulant (CP) [2]; 10 μM inhibitor) is reported as “no inhibition”, the “percent inhibition of CP” value (cancer procoagulant (CP) [2]; 100 μM inhibitor) is reported as 26% and the “percent inhibition of CP” value (cancer procoagulant (CP) [2]; 200 μM inhibitor) is reported as 51%. The “percent inhibition of CP” value (cancer procoagulant (CP) [2]; 400 μM inhibitor) was 62%, the “percent inhibition of papain” value (papain; 10 μM inhibitor) was 55% and the “percent inhibition of papain” value (papain; 100 μM inhibitor) was “completely inhibited”. For the same molecule, the “percent inhibition of papain” value (papain; 200 μM inhibitor) was “completely inhibited”, the “effect on activity of RVV” value [3] was “Neither S1 nor S2 affected the activity of RVV” and the “enhancement of TF activity (negative inhibition)” value [4] was 5%.
For Z-Phe-Lys-CH2 -S^+ (CH3)2 bromide [S2], the “percent inhibition of CP” value (cancer procoagulant (CP) [2]; 10 μM inhibitor) was “no inhibition”, the “percent inhibition of CP” value (cancer procoagulant (CP) [2]; 100 μM inhibitor) was 33% and the “percent inhibition of CP” value (cancer procoagulant (CP) [2]; 200 μM inhibitor) was 54%. For the same molecule, the “percent inhibition of CP” value (cancer procoagulant (CP) [2]; 400 μM inhibitor) was 72%, the “percent inhibition of papain” value (papain; 10 μM inhibitor) was 20% and the “percent inhibition of papain” value (papain; 100 μM inhibitor) was “almost the same effect”. For the same molecule, the “percent inhibition of papain” value (papain; 200 μM inhibitor) was “almost the same effect”, the “effect on activity of RVV” value [3] was “Neither S1 nor S2 affected the activity of RVV” and the “enhancement of TF activity (negative inhibition)” value [4] was 8%.
